Assay results: ChEMBL document CHEMBL4715844, “Structure-based virtual screening and biological evaluation of novel non-bisphosphonate farnesyl pyrophosphate synthase inhibitors” (Eur J Med Chem, 2020)

Experiments:
[1] = biological target: T1, Farnesyl pyrophosphate synthase (Rattus norvegicus) (UniProt P05369); experiment: Inhibition of rat FPPS expressed in Escherichia coli BL21 (DE3) using GPP and IPP as substrate at 10 uM incubated for 10 mins by microplate reader
T1 sequence (whole entry): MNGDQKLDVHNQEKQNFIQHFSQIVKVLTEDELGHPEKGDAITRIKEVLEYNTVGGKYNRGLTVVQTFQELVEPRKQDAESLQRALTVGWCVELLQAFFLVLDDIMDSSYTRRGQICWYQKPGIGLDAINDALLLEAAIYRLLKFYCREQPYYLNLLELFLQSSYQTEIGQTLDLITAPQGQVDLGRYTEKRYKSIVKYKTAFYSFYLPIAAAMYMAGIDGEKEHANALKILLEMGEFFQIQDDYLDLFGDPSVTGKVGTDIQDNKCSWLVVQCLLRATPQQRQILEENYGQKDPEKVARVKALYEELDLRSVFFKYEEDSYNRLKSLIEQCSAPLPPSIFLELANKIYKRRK

[2] = biological target: T2, Farnesyl pyrophosphate synthase (Rattus norvegicus, UniProt P05369); experiment: Binding affinity to rat FPPS expressed in Escherichia coli BL21 (DE3) by isothermal titration calorimetry
T2 sequence (P05369 whole entry): T1 sequence (whole entry)

Row | inhibition [1] [%] | Kd [2] [µM] | SMILES
1 | 13 | 181 | O=C(CC1(O)C(=O)Nc2ccccc21)CC1(O)C(=O)Nc2ccccc21 (centres undefined)
2 | 28.9 | 72 | CC(C)Oc1ccc(CNC(=O)C2CCCN(S(=O)(=O)N3CCOCC3)C2)cc1 (centres undefined)
